# Measurements: patent publication US20210236678A1, “HOUSEHOLD PRODUCT DELIVERING WARMING AND/OR TINGLING SENSATIONS” (TAKASAGO INTERNATIONAL CORPORATION, priority 2016, published 2021)
# What was measured:
# [1] = tested on: warming perception in the nose; assay: Perception test for warming agents (panel smells samples; rating and ranking); type: in vivo; details: panel of 20 subjects; for Mean rank (less warming = rank 1, more warming = rank 4) / Nemenyi multiple comparison test of warming ranking vs reference capsaicin: 1% in TEC; for Mean rank (less warming = rank 1, more warming = rank 4) / warming perception in the nose (rating), compared to the reference capsaicin: smelled; for warming perception in the nose (rating), compared to the reference capsaicin: 1% in Triethyl Citrate (TEC), scale 0 to 100, ANOVA and Student's t-test
# [2] = tested on: tingling sensation in the nose; details: 3% in Triethyl Citrate (TEC); panel of 80 subjects; scale 0 to +100
# Protocol: Comparison of tingling effect between isopulegol and menthoxypropanediol
# A panel of 80 subjects was selected to take part in a comparative test between isopulegol (available as Coolact (registered trademark) P) and menthoxypropanediol (CAS 87061-04-9, available as Coolact (registered trademark) 10).
# The samples of isopulegol and menthoxypropanediol were prepared by dilution to 3% in Triethyl Citrate (TEC).
# The subjects had to score whether they perceived a tingling sensation in the nose, on a scale of 0 (no sensation) to +100 (extremely tingling).
# human TRPA1 = target: T1, human TRPA1 (Homo sapiens, UniProt O75762); assay: Screening on receptors TRPA1 (Fluo-8 calcium fluorescence, FLIPR, HEK-293 cells); type: cell-based; details: for EC50: HEK-293 cells stably transfected with human TRPA1, agonist, normalised to spilanthol EC100, elemi oil molarity assumes molecular weight of elemol; for agonist activity on TRPA1 compared to spilanthol (reference): HEK-293 cells with human TRPA1
# T1 construct: expressed in transfected cells; host or cells: HEK-293
# T1 sequence (O75762 whole entry): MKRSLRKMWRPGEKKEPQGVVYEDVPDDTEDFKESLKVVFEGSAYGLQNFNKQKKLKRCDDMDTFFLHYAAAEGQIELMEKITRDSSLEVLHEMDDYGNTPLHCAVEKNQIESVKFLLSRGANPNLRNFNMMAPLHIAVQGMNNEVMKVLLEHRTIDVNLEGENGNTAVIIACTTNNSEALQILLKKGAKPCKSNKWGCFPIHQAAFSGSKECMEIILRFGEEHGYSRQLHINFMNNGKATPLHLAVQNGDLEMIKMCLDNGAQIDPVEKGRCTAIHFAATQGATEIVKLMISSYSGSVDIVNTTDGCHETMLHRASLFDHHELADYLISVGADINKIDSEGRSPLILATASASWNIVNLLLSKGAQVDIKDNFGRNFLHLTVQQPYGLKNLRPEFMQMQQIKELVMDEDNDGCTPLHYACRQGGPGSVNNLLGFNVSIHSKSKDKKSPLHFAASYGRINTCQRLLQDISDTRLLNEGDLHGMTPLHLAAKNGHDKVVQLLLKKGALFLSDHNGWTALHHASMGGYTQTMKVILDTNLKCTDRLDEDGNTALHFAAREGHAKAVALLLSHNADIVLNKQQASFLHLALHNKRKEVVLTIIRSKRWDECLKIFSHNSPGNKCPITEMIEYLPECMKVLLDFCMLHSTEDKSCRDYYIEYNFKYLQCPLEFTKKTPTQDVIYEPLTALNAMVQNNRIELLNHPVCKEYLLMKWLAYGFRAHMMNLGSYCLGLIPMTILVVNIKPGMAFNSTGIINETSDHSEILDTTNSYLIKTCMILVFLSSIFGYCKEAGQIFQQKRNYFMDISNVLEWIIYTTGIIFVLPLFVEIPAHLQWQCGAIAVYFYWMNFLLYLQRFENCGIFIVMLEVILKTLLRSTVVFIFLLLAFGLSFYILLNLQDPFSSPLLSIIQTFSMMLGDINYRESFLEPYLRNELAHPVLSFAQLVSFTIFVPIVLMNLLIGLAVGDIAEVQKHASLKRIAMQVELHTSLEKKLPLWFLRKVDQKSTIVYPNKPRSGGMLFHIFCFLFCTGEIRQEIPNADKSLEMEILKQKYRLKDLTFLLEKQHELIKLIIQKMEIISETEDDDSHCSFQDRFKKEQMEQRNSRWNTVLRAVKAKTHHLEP
# Protocol: The following are the test protocols used in determining whether fragrance ingredients show a response on the TRPA1 and TRPV1 receptors which are associated with tingling and warming sensations respectively. In all cases, the reaction is measured by fluorescence imaging using high throughput screening equipment.
# Method for Screening on Receptors TRPA1:
# HEK-293 (Human Embryonic Kidney) cells stably transfected with human TRPA1 were grown in a culture medium of EMEM (medium Essential Medium Eagle with Earl's salts balanced salt solution (Lonza catalogue No BE12-125F), 5 mL of 200 mM Ultraglutamine 1 (Lonza Catalogue No BE17-605E/U1), 5 mL of 100× Penicillin/Streptomycin (Lonza Catalogue No DE17-602E) 50 mL of Fetal bovine serum (Euroclone Cat No ECS0180L) 2 mL of 100 mg/mL Genticin sulphate (G418 sulphate InvivoGen CatAnt-gn-5).
# 10,000 cells/well were seeded in a 384 MTP in complete medium. Then, after 24 hours, the culture medium was manually removed. The cells were loaded with 20 μL/well of 0.5× Fluo-8 NW dye in standard Tyrode's buffer (Screen Quest™ Fluo-8 No wash Calcium assay kit supplied by AAT Bioquest catalogue No 26316). The plate was incubated for 1 hour at room temperature in the dark. 10 μL/well of test chemaesthetic agents were injected and controlled with the FLIPR^TETRA (Molecular Devices). The emitted fluorescence signal at 520 nm was recorded for 3 minutes. The compound multiwall plate contained the samples at 8 different doses in quadruplicate data points. Dose response of the samples were performed starting from 100 mM concentration in 100% DMSO with a serial dilution of 1:2 and then diluted in assay buffer at the final concentration of 100 μM, 50 μM, 25 μM, 12.5 μM, 6 μM, 3 μM, 1.5 μM, and 0.7 μM.
# In the compound plate were also present a dose response of the reference agonist at 8 concentrations and in duplicate. Spilanthol was the reference agonist for TRPA1 in this study. These reference controls dosed as 16 wells (duplicates for each concentration) of reference agonist at ECioo corresponded to the MAX signal response (100% activity).
# There were also 16 wells of blanks, i.e. assay buffers without either a test sample or reference compound which corresponded to the MIN signal response (0% activity). MAX and MIN controls were used for data analysis (RZ' calculation) and normalization of compound activity.
# For data analysis the response value was calculated as the maximum signal of the kinetic trace after the injection minus the median of the points before injection and multiplied by the normalization factor (NF). The normalisation factor was the baseline mean of all wells in the plate divided by the baseline of a specific well.
# To calculate the % of activity of the sample the response value was normalized versus MAX signal controls and MIN Signal controls to obtain the activity % according to the following formula: […]
# The normalized data in percent activity were then used to perform curve fitting and EC50 calculation corresponding to the concentration that gave 50% of activation of the receptor (within a curve fitting program within the data analysis software).
# [3] = tested on: tingling perception in the nose; assay: Perception test for tingling agents (panel smells samples; rating and ranking); type: in vivo; details: panel of 20 subjects, smelled
# Protocol: The reference spilanthol is contained in jambu and known for its tingling effect on the skin/the tongue (U.S. Pat. No. 9,890,567; J. Paulraj et al., Advances in Pharmacological Sciences, Vol. 2013, Article ID 510298, 22 pages). The samples were prepared as solutions of the pure raw materials at 1% in Triethyl Citrate (TEC), and portions decanted into small jars for testing. In a first part of the evaluation, the subjects of the panel smell the samples one by one and rate them on the following scale: tingling perception in the nose: 0 (not at all) to 100 (very strong sensation). In a second part of the evaluation, the subjects of the panel rank the […] agents from the less tingling agent (rank 1) to the more tingling agents (rank 4). The mean values obtain for the ranking where as follows: […]
# human TRPV1 = target: T2, human TRPV1 (Homo sapiens, UniProt Q8NER1); assay: Screening on receptors TRPV1 (fluorescence imaging, CHO-K1 cells); type: cell-based; details: for agonist activity on TRPV1 compared to capsaicin (reference): CHO-K1 cells with human TRPV1
# T2 construct: expressed in transfected cells; host or cells: CHO-K1
# T2 sequence (Q8NER1 whole entry): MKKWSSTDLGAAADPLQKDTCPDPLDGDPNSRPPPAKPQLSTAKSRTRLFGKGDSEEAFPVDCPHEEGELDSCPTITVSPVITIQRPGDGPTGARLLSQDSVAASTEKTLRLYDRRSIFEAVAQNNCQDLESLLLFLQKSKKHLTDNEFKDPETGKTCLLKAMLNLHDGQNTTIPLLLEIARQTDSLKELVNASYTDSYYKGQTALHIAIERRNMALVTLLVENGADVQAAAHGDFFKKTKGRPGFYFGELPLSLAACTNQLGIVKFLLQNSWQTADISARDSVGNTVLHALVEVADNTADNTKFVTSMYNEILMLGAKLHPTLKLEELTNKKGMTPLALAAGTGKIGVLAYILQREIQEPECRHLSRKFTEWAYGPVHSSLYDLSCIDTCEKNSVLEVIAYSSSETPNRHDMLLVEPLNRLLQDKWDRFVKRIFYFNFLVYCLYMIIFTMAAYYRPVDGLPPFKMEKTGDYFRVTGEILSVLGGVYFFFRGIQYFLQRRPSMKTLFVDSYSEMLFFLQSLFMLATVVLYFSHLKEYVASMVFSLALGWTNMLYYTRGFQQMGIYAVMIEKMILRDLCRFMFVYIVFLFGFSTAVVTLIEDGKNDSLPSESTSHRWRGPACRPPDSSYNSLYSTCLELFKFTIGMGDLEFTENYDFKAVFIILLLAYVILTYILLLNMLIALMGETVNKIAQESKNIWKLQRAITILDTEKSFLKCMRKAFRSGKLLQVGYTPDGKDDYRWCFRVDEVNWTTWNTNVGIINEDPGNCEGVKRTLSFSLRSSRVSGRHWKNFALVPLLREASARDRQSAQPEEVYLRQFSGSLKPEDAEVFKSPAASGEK
compound,measurement,setting,value
"COc1cc(CNC(=O)CCCC/C=C/C(C)C)ccc1O [capsaicin, reference compound]","Mean rank (less warming = rank 1, more warming = rank 4)",[1],1.650
C=C(C)[C@@H]1CC[C@@H](C)C[C@H]1O [isopulegol],"tingling sensation in the nose, isopulegol compared with menthoxypropanediol",[2],improved tingling perception
same,EC50,human TRPA1,57 µM
same,agonist activity on TRPA1 compared to spilanthol (reference),human TRPA1,comparable agonists for TRPA1
CC(C)[C@@H]1CC[C@@H](C)C[C@H]1OCC(O)CO (stereo partly shown) [menthoxypropanediol],"tingling sensation in the nose, isopulegol compared with menthoxypropanediol",[2],lower tingling sensation
same,EC50,human TRPA1,200 µM
same,agonist activity on TRPA1 compared to spilanthol (reference),human TRPA1,comparable agonists for TRPA1
C/C=C/C=C\CC/C=C/C(=O)NCC(C)C [spilanthol],"Mean rank (less tingling = rank 1, more tingling = rank 4)",[3]; 1% in TEC,1.150
same,"tingling perception in the nose (rating), compared to the reference spilanthol","[3]; 1% in Triethyl Citrate (TEC), scale 0 to 100, ANOVA and Student's t-test",little effect at all
same,EC50,human TRPA1,35.5 µM
CCCCOCc1ccc(O)c(OC)c1 [vanillyl butyl ether],Nemenyi multiple comparison test of warming ranking vs reference capsaicin,[1],significantly more warming
same,"Mean rank (less warming = rank 1, more warming = rank 4)",[1],2.925
same,"warming perception in the nose (rating), compared to the reference capsaicin",[1],improved warming perception
same,EC50,human TRPV1,7.58 µM
same,agonist activity on TRPV1 compared to capsaicin (reference),human TRPV1,weaker agonists for TRPV1 than capsaicin
CCOCc1ccc(O)c(OC)c1 [vanillyl ethyl ether],Nemenyi multiple comparison test of warming ranking vs reference capsaicin,[1],significantly more warming
same,"Mean rank (less warming = rank 1, more warming = rank 4)",[1],2.450
same,"warming perception in the nose (rating), compared to the reference capsaicin",[1],improved warming perception
same,agonist activity on TRPV1 compared to capsaicin (reference),human TRPV1,weaker agonists for TRPV1 than capsaicin
